Laboratory results: ChEMBL document CHEMBL1130591, “P2-proline-derived inhibitors of calpain I” (Bioorg Med Chem Lett, 1998)
Non-standard residues stand in square brackets, D forms with d. Residues, ends and D or L forms follow the SMILES beside them. *: point of attachment. Tos = Cc1ccc(S(=O)(=O)*)cc1; Ms = CS(=O)(=O)*

How the values were obtained:
[1] = biological target: Chymotrypsinogen A (Bos taurus) (UniProt P00766); assay: Compound was tested for inhibitory activity against alpha-chymotrypsin at concentration of 10 uM.
[2] = biological target: Cathepsin B (Homo sapiens, UniProt P07858); assay: Compound was tested for inhibitory activity against Cathepsin B.
[3] = biological target: T1, Calpain-1 catalytic subunit (Homo sapiens) (UniProt P07384); assay: Compound was tested for inhibitory activity against recombinant human Calpain 1 at concentration of 1 uM
T1 sequence (whole entry): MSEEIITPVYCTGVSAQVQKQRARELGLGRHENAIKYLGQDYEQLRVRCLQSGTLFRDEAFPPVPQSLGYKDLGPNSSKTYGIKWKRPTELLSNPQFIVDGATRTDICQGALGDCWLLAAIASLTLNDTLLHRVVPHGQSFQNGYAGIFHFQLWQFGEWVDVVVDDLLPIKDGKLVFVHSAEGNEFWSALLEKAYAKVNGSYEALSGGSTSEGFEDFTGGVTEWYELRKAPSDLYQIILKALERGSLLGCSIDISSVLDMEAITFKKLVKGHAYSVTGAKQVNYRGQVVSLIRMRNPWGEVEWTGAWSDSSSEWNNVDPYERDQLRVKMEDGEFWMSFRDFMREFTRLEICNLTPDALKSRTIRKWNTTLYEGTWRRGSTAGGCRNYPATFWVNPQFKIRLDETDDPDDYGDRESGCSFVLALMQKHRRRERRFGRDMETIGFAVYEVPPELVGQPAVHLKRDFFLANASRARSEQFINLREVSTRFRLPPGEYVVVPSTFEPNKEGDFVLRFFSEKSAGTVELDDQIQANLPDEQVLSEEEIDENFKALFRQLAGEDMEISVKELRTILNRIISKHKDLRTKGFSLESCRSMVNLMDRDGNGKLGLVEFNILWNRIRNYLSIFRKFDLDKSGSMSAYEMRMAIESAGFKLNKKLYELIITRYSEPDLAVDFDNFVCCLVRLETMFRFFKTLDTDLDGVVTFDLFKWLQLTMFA

[4] = biological target: T2, Calpain-1 catalytic subunit (Homo sapiens, UniProt P07384); assay: Compound was tested for inhibitory activity against recombinant human Calpain 1
T2 sequence (P07384 whole entry): T1 sequence (whole entry)

[5] = biological target: Chymotrypsinogen A (Bos taurus) (UniProt P00766); assay: Compound was tested for inhibitory activity against alpha-chymotrypsin at concentration of 1 uM.

## Cc1ccc(S(=O)(=O)N2CCC[C@@H]2C(=O)N[C@H](C=O)Cc2ccccc2)cc1 (Tos-[dP]-Phe-aldehyde)
[1]
  inhibition: 12%
[2]
  IC50: 3.6 µM

## Cc1ccc(S(=O)(=O)O[C@@H]2C[C@H](C(=O)N[C@H](C=O)Cc3ccccc3)N(S(=O)(=O)c3ccccc3)C2)cc1
[3]
  inhibition: 48%

## CS(=O)(=O)N1CCC[C@H]1C(=O)N[C@H](C=O)Cc1ccccc1 (Ms-Pro-Phe-aldehyde)
[4]
  IC50: 0.045 µM
[2]
  IC50: 0.883 µM

## Cc1ccc(S(=O)(=O)N2C[C@@H](OS(C)(=O)=O)C[C@@H]2C(=O)N[C@H](C=O)Cc2ccccc2)cc1
[3]
  inhibition: 79%

## O=C[C@H](Cc1ccccc1)NC(=O)[C@H]1C[C@H](OS(=O)(=O)c2ccccc2)CN1S(=O)(=O)c1ccccc1
[5]
  inhibition: 42%

## O=C[C@H](Cc1ccccc1)NC(=O)[C@@H]1C[C@@H](OCc2ccccc2)CN1S(=O)(=O)c1ccccc1
[4]
  IC50: 0.125 µM

## Cc1ccc(S(=O)(=O)O[C@H]2C[C@H](C(=O)N[C@H](C=O)Cc3ccccc3)N(S(=O)(=O)c3ccc(C)cc3)C2)cc1
[3]
  inhibition: 74%

## Cc1ccc(S(=O)(=O)N2C[C@H](NC(=O)C(F)(F)F)CC2C(=O)N[C@H](C=O)Cc2ccccc2)cc1 (single isomer, unassigned)
[4]
  IC50: 0.1 µM

## Cc1ccc(S(=O)(=O)N2C[C@H](C#N)CC2C(=O)N[C@H](C=O)Cc2ccccc2)cc1 (single isomer, unassigned)
[4]
  IC50: 0.028 µM
[1]
  inhibition: 6%
[2]
  IC50: 8.7 µM

## O=C[C@H](Cc1ccccc1)NC(=O)[C@@H]1C[C@@H](OS(=O)(=O)c2ccccc2)CN1S(=O)(=O)c1ccccc1
[4]
  IC50: 0.013 µM
[2]
  IC50: 0.038 µM

## Cc1ccc(S(=O)(=O)N2C[C@H](N=[N+]=[N-])CC2C(=O)N[C@H](C=O)Cc2ccccc2)cc1 (single isomer, unassigned)
[1]
  inhibition: 9%
[2]
  IC50: > 10 µM

## CS(=O)(=O)N1CCC[C@@H]1C(=O)N[C@H](C=O)Cc1ccccc1 (Ms-[dP]-Phe-aldehyde)
[1]
  inhibition: 2%
[2]
  IC50: 3 µM

## Cc1ccc(S(=O)(=O)N2C[C@H](NS(C)(=O)=O)CC2C(=O)N[C@H](C=O)Cc2ccccc2)cc1 (single isomer, unassigned)
[3]
  inhibition: 40%

## O=C[C@H](Cc1ccccc1)NC(=O)[C@@H]1CCCN1S(=O)(=O)c1ccccc1
[4]
  IC50: 0.041 µM
[2]
  IC50: 1.4 µM
